One compound from patent US10154970B2, “Methods for immunomodulation of cancer and infectious disease therapy” (The Regents of the University of California, priority 2014, dated 2018) can be followed below.

In experiment [1] the test system is IFN-γ. The following applies: non-tumor bearing mice, 48 hours after final PV dose. The method, then: (§1) FIG. 6. Effect of TRIP and PV combination treatment on serum cytokine levels. Serum cytokines were assessed by multiplex immunoassay 48 hours following the final dose of PV, which was administered as 8 weekly 10-μg doses. TRIP was administered daily for the last 14 days of the study.
(§2) A total of 43 wild type C57BL/6 mice were assigned to four different treatment groups: Control (n=10); and TRIP (i.e., ospemifene) 10, 50, and 100 mg/kg (n=11, all TRIP groups). All mice received a full course of tecemotide (L-BLP25) peptide vaccine (PV) immunotherapy (eight weekly 10 μg doses administered subcutaneously (s.c.) as described in Wurz G T. et al., J. Transl. Med., 11:64 (2013)). During the final 16 days of immunotherapy, mice received daily oral doses of TRIP according to treatment group assignment. TRIP oral dosing solutions were prepared by dissolving an appropriate amount of the drug in pure dimethyl sulfoxide (DMSO) and then adding peanut oil to the desired final concentration (final DMSO concentration was 2%). All doses were administered in a volume of 100 μl using 20-gauge stainless steel oral feeding needles. Control mice were given diluent only. Forty-eight hours following the final dose of PV, all mice were euthanized for the collection of blood for cytokine analysis by multiplex and spleens for assessing immune response by enzyme-linked immunosorbent spot (ELISpot) assay.

The subject of a further experiment is IL-6. The method, then: as §1, §2
Experiment [2] deals with IFN-γ. The experiment in a line: Experiment 4: IFN-γ ELISpot after short-course TRIP and PV in lung tumor-bearing mice. The format is in vivo, human MUC1.Tg C57BL/6 mice. The following applies: short-course (16-day) TRIP 10 or 50 mg/kg + one cycle of PV.
Protocol: Effect of short-course (16-day) TRIP treatment on IFN-γ immune response. […] Lymphocytes were isolated following treatment with one cycle of PV, TRIP 10 mg/kg, TRIP 50 mg/kg, or combinations (n=10-11). PV=peptide vaccine.
A total of 65 male human MUC1.Tg C57BL/6 mice underwent urethane lung tumor induction as described (Wurz G T. et al., J. Transl. Med., 11:64 (2013)) starting at approximately five weeks of age. […] Starting in Week 20, all mice in the PV treatment groups were administered eight weekly 10 μg doses by subcutaneous (s.c.) injection (100 μl) at rotating sites using a 25-gauge needle. […] All other mice received daily oral doses of the control solution. Twenty-four hours after the final dose of TRIP and 48 hours after the last dose of PV (Week 27), all mice were euthanized for the collection of serum and spleens, which were processed appropriately for ELISpot and CTL assays. For the ELISpot assay, n=4-5.
The subject of experiment [3] is cytotoxic T lymphocyte activity. The following applies: TRIP 50 mg/kg daily oral 16 days + PV.
Protocol: Effects of short-course TRIP dosing regimens on cytotoxic T lymphocyte activity. Average target cell apoptosis percentages (+SEM) were assessed in control (n=10), one cycle of PV (n=11), short-course TRIP (16 days; 10 mg/kg, TRIP 10; 50 mg/kg, TRIP 50; n=11), and PV+TRIP combination (n=11) treatment groups. PV=peptide vaccine; *p<0.05.
A total of 65 male human MUC1.Tg C57BL/6 mice underwent urethane lung tumor induction as described (Wurz G T. et al., J. Transl. Med., 11:64 (2013)) starting at approximately five weeks of age. In Week 20, six weeks after the last dose of urethane, mice were randomized into six treatment groups of approximately equal average weight: Control (n=10); TRIP (i.e., ospemifene) 10 mg/kg (n=11); TRIP 50 mg/kg (n=11); tecemotide (L-BLP25) peptide vaccine (PV) alone (n=11); TRIP 10 mg/kg+PV (n=11); and TRIP 50 mg/kg+PV (n=11). Starting in Week 20, all mice in the PV treatment groups were administered eight weekly 10 μg doses by subcutaneous (s.c.) injection (100 μl) at rotating sites using a 25-gauge needle. […]
Average target cell apoptosis percentages (+SEM) were assessed in control (n=10), one cycle of PV (n=11), short-course TRIP (16 days; 10 mg/kg, TRIP 10; 50 mg/kg, TRIP 50; n=11), and PV+TRIP combination (n=11) treatment groups. […]
Another experiment relates to IL-4. The method, then: as §2
Data are expressed as the number of spot forming cells (SFC)/500,000 lymphocytes following exposure to medium (no peptide), scrambled peptide, and BP25 peptide.

Experiment [4] concerns IFN-γ. The experiment in a line: Example 6: IFN-γ ELISpot response to BP25 peptide in allograft-bearing mice. The format is in vivo, C57BL/6 wild type mice. The following applies: Day 28, TRIP 100 mg/kg + PV 100 μg.
Protocol: IFN-γ immune response to scrambled and BP25 peptides following treatment with control (n=5), TRIP 100 mg/kg (n=6), PV 100 μg (n=6) and the TRIP+PV (n=6) combination. Each of four weekly 100 μg injections of peptide vaccine (PV) was preceded by three daily oral doses of TRIP. All mice were implanted with breast cancer allografts on Day 0, and spleens were collected for enzyme-linked immunosorbent spot (ELISpot) analysis on Day 28 following four weeks of treatment. The BP25 peptide is a 25-mer and the target antigen of the PV, while the scrambled peptide is a control peptide containing the same 25 amino acids in a scrambled arrangement.
On Day 0 of the study, all 32 mice were subcutaneously implanted with 1.0×10^6 mouse breast cancer cells expressing the PV target antigen (BP25). Two days later, mice began a three-day regimen of once daily 100 mg/kg TRIP administered orally. On Day 5, mice were administered their first weekly 100 μg dose of PV by subcutaneous injection. This treatment schedule was repeated for a total of four weeks. Tumor growth was assessed twice weekly. All mice were euthanized on Day 28 for the collection of serum and spleens to assess immune response to treatment. Immune response was assessed by performing IFN-γ ELISpot.
In experiment [5] the test system is T-cell surface markers (CD4, CD8, PD-1, CD28). The experiment in a line: Experiment 5: T-cell surface markers of spleen lymphocytes by flow cytometry. The format is in vivo, human MUC1.Tg C57BL/6 mice. The following applies: TRIP 100 mg/kg or letrozole 0.8 mg/kg daily oral 14 days. The method, then: FIG. 11. Lymphocyte phenotypes following different hormonal treatments. (A) CD3+CD4+; (B) CD3+CD8+; (C) CD3+CD28+; (D) CD8+CD28+; (E) CD3+PD-1+; and (F) CD8+PD-1+; T cell surface markers were stained with indicated antibodies after […] of TRIP (100 mg/kg), estradiol (E2; 25 μg/kg), and letrozole (0.8 mg/kg) treatments (n=8 all groups).
(§3) A total of 32 female human MUC1.Tg C57BL/6 mice, starting at approximately six weeks of age, were treated with urethane as described (Wurz G T. et al., J. Transl. Med., 11:64 (2013)). Two weeks following the final dose of urethane (Week 17), the mice were randomized into four treatment groups of approximately equal average weight (n=8, all groups): Control (no treatment); TRIP (i.e., ospemifene) 100 mg/kg; estradiol 25 μg/kg; and letrozole 0.8 mg/kg. TRIP and letrozole were prepared in DMSO and peanut oil as described above in Experiment 2 and administered daily for 14 days by oral gavage (100 μL). Estradiol was dissolved in 100% ethanol, diluted in PBS to achieve the desired concentration, and then administered daily for 14 days by s.c. injection at rotating sites using a 25-gauge needle. In Week 19, the study was terminated, 24 hours after the last treatments, and serum and spleens were collected for surface marker and Treg analyses.
(§4) After two weeks of treatment, lymphocytes were isolated from spleen. T-cell surface markers (CD4, CD8, PD-1, CD28) and regulatory T cells (Tregs) were analyzed by flow cytometry.

Experiment [6] deals with pro-inflammatory cytokines (IL-6, IP-10, MIG, IL-1β, KC).
Protocol: Serum was analyzed by multiplex immunoassay 24 hours following the last dose of TRIP at each time point.
Following induction of lung cancer as described (Wurz G T. et al., J. Transl. Med., 11:64 (2013)), mice were randomized into four treatment groups: Control; and TRIP (i.e., ospemifene) 5, 25, and 50 mg/kg (n=12, all groups). TRIP and control solutions were orally administered by gavage according to treatment group. After 30 days of treatment (Week 20), a total of 16 mice, four from each treatment group, were euthanized, and whole blood was collected by cardiac puncture. The remaining mice continued daily TRIP treatments. An additional 16 mice, four from each treatment group, were euthanized following 60 (Week 24) and 90 (Week 28) days of treatment, and whole blood and livers were collected. Serum samples were subjected to multiplex cytokine analysis for TH1 (IL-2, IL-12, IFN-γ, TNF-α), TH2 (IL-4, IL-5, IL-10, IL-13) and inflammatory cytokines (MIP-1α, IP-10, MIG, IL-1β, IL-6, KC).
Terminal serum pro-inflammatory cytokines (IL-6, IP-10, MIG, IL-1β, KC) were analyzed 24 hours after the last dose at each time point (FIG. 7).
For experiment [7], the system named is regulatory T cells (Tregs). Briefly: Experiment 5: regulatory T cells (FoxP3+/CD4+) by flow cytometry. In kind it is in vivo, human MUC1.Tg C57BL/6 mice. The following applies: TRIP 100 mg/kg or letrozole 0.8 mg/kg daily oral 14 days. The method, then: as §3, §4
Background: A flow cytometer gives signals particle by particle.

Experiment [8] deals with IFN-γ. The experiment in a line: Experiment 5: serum IFN-γ cytokine analysis. In kind it is in vivo, human MUC1.Tg C57BL/6 mice. The following applies: TRIP 100 mg/kg or letrozole 0.8 mg/kg daily oral 14 days. The method, then: FIG. 13. Effects of TRIP on serum IFN-γ compared to estradiol and letrozole. Serum IFN-γ from untreated control, TRIP (100 mg/kg), estradiol (E2; 25 μg/kg), and letrozole (0.8 mg/kg) groups were analyzed following daily treatment for 14 days (n=8 all groups). **p<0.01, ***p<0.001.
TRIP and letrozole were prepared in DMSO and peanut oil as described above in Experiment 2 and administered daily for 14 days by oral gavage (100 μL). Estradiol was dissolved in 100% ethanol, diluted in PBS to achieve the desired concentration, and then administered daily for 14 days by s.c. injection at rotating sites using a 25-gauge needle. In Week 19, the study was terminated, 24 hours after the last treatments, and serum and spleens were collected for surface marker and Treg analyses.

The test system of experiment [9] is mouse breast cancer cells expressing the PV target antigen (BP25). Briefly: Example 6: tumor volume of breast cancer allografts. In kind it is in vivo, C57BL/6 wild type mice. The following applies: three daily oral doses TRIP 100 mg/kg before each of four weekly 100 μg PV; Days 22 and 25.
Protocol: Antitumor effects and serum IFN-γ immune response to peptide vaccine immunotherapy alone and in combination with TRIP immunomodulator. Each of four weekly 100-μg injections of peptide vaccine (PV) was preceded by three daily oral doses of TRIP (100 mg/kg). All mice were implanted with breast cancer allografts on Day 0, and serum was collected on Day 28 following four weeks of treatment. Tumor volumes were measured twice each week. For all treatment groups, n=8.
A total of 32 female C57BL/6 wild type mice were assigned to four treatment groups (n=8): Control; TRIP (i.e., ospemifene) 100 mg/kg; tecemotide (L-BLP25) peptide vaccine (PV) (100 μg); and TRIP 100 mg/kg combined with 100 μg PV. On Day 0 of the study, all 32 mice were subcutaneously implanted with 1.0×10^6 mouse breast cancer cells expressing the PV target antigen (BP25). Two days later, mice began a three-day regimen of once daily 100 mg/kg TRIP administered orally. On Day 5, mice were administered their first weekly 100 μg dose of PV by subcutaneous injection. This treatment schedule was repeated for a total of four weeks. Tumor growth was assessed twice weekly. All mice were euthanized on Day 28 for the collection of serum and spleens to assess immune response to treatment. Immune response was assessed by performing IFN-γ ELISpot.

As for `OCCOc1ccc(/C(=C(/CCCl)c2ccccc2)c2ccccc2)cc1` [TRIP, Z-2-[4-(4-chloro-1,2-diphenyl-but-1-enyl)-phenoxy]ethanol], the “serum IFN-γ levels, TRIP and PV vs PV alone” value with IFN-γ [1] was “increased”. Further, the “serum concentrations of IL-6, TRIP 100 mg/kg and PV compared to PV alone” value in the experiment on IL-6 (TRIP 100 mg/kg + PV) was “significantly lower”. In addition, the “serum IL-6 concentrations, TRIP and PV vs PV alone” value with IL-6 (non-tumor bearing mice, 48 hours after final PV dose) is on record as “dose-dependently decreased”. Also, the “IFN-γ immune response by ELISpot, TRIP in combination with the PV” value in the experiment with IFN-γ [2] is recorded as “equivalent increase”. For the same compound, the “induction of CTL activity, PV with short-course TRIP compared to TRIP or PV treatments alone” value in [3] is “significantly boosted”. Also, the “IL-4 response, PV + 50 mg/kg TRIP vs PV alone” value with IL-4 (TRIP 50 mg/kg daily oral final 16 days + PV) is given as “No significant difference”. Besides, the “IL-4 immune response by ELISpot, TRIP combined with PV” value in the experiment with IL-4 (TRIP 10, 50, 100 mg/kg daily oral final 16 days + 8 weekly 10 μg PV s.c.) was “decrease with TRIP dose”. Besides, in the experiment on IFN-γ [4], the “T cell immune response by ELISpot to the target antigen (BP25), PV in combination with TRIP” value was “specific IFN-γ responses” and the “T cell immune response by ELISpot, PV in combination with TRIP compared to PV alone” value was “increased immune response”. Also, the “expression of surface markers, including CD8 and CD28, vs control” value in experiment [5] is reported as “no difference”. In [6] (TRIP 5, 25, 50 mg/kg daily oral, 30, 60, 90 days, compared to control group), the “pro-inflammatory serum cytokine levels” value is reported as “decreasing levels”. Further, the “serum IL-6 levels, control vs all doses of TRIP” value in [6] (at 28 weeks (90 days of treatment)) is reported as “Differences”. Moreover, in experiment [7], the “Tregs (FoxP3+/CD4+) compared to estradiol treatment” value is listed as “significantly inhibited”. In addition, the “serum IFN-γ concentrations compared to estradiol” value in the experiment with IFN-γ [8] is recorded as “significantly increased”. For the same compound, the “tumor volume compared to the control group, PV in combination with TRIP” value in experiment [9] is given as “reduced tumor volume”.
